Our source for the IC50 values is patent US20230025880A1, “FUSED TRICYCLIC COMPOUND AND MEDICINAL USE THEREOF” (JAPAN TOBACCO INC., priority 2020, published 2023).

The assay deals with T1, human PDHK2 (hPDHK2) (Homo sapiens, UniProt Q15119).
T1 construct: made in house; host or cells: Escherichia coli BL21(DE3), pET-17b vector
Kind of assay: Inhibitory action of PDHK2 activity (residual PDH activity, NADH absorbance at 340 nm). The format is biochemical. The note with it: PDH/hPDHK2 complex, PDHK reaction 45 min at room temperature. As for the experimental part:
In the case of human PDHK2 (hPDHK2, NCBI Reference Database Accession number NM_002611.4), modified hPDHK2 cDNA wherein FLAG-Tag sequence was added to the N terminus of hPDHK2 cDNA clone (pReceiver-M01/PDK2-GeneCopoeia) as the base was prepared by polymerase chain reaction (PCR) and ligated to the NdeI/EcoRI site of pET-17b vector (Merck KGaA, Catalog Number 69663-3). The recombinant construct was transformed into Escherichia coli DH5α. The recombinant clones were identified, and plasmid DNA was isolated and subjected to the DNA sequence analysis. One clone which had the expected nucleic acid sequence was selected for expression work.
For expression of hPDHK2 activity, Escherichia coli strain BL21(DE3) cells (Merck KGaA, Catalog Number 69450-4) were transformed with the pET17b vector containing modified hPDHK2 cDNA. The Escherichia coli were grown to an optical density 0.6 ([…]) at 30° C. Protein expression was induced by the addition of 500 μmol/L isopropyl-β-thiogalactopyranoside. The Escherichia coli were cultured at 20° C. for 17-18 hr and harvested by centrifugation. The harvested Escherichia coli was resuspended in a suspension buffer (20 mmol/L HEPES-NaOH, 500 mmol/L sodium chloride, 1% ethylene glycol, 0.1% Pluronic (registered trademark) F-68 (pH 8.0), cOmplete, EDTA-free (Roche) (pH 8.0)), and disrupted by a microfluidizer M-110H (MIZUHO INDUSTRIAL CO., LTD.). The precipitate was removed by centrifugation and the supernatant was added to DDDDK-tagged Protein PURIFICATION GEL (MEDICAL & BIOLOGICAL LABORATORIES CO., LTD., Code No. 3329). DDDDK-tagged Protein PURIFICATION GEL was washed with a washing buffer (20 mmol/L HEPES-NaOH, 500 mmol/L sodium chloride, 1% ethylene glycol, 0.1% Pluronic F-68 (pH 8.0)) and the bound protein was eluted with elution buffer 1 (20 mmol/L HEPES-NaOH, 100 μg/mL peptide (amino acid sequence DYKDDDDK) (SEQ ID NO: 1), 500 mmol/L sodium chloride, 1% ethylene glycol, 0.1% Pluronic F-68 (pH 8.0)). The eluted fractions containing FLAG-Tagged protein were pooled, concentrated by an ultrafiltration method, added to a gel filtration column (HiLoad 26/60 Superdex 200 (GE Healthcare Life Sciences, Code No. 17-1070-01)), and eluted with elution buffer 2 (20 mmol/L HEPES-NaOH, 150 mmol/L sodium chloride, 0.5 mmol/L ethylenediaminetetraacetic acid (EDTA), 1% ethylene glycol, 0.1% Pluronic F-68 (pH 8.0)). The eluted fractions were pooled and preserved at −80° C.
PDH (porcine heart PDH complex, Sigma P7032) and 0.5 μg/mL hPDHK2 were mixed in an assay buffer (50 mmol/L 3-morpholinopropanesulfonic acid (pH 7.0), 20 mmol/L dipotassium hydrogen phosphate, 60 mmol/L potassium chloride, 2 mmol/L magnesium chloride, 0.4 mmol/L EDTA, 0.2% poloxamer, 2 mmol/L dithiothreitol) so that the final concentration of PDH was 0.025 U/mL, and the mixture was incubated at 4° C. overnight to obtain a PDH/hPDHK2 complex solution.
PDH was mixed with the assay buffer so that the final concentration was 0.025 U/mL, and the mixture was incubated at 4° C. overnight to prepare a PDH solution.
The test compounds were diluted with DMSO. To measure an inhibitory action of the test compound on the PDHK activity in the PDH/hPDHK2 complex solution, PDH/hPDHK2 complex solution (20 μL), test compound (1.5 μL) and 1.06 μmol/L ATP (diluted with assay buffer) (8.5 μL) were added to a 384 well microplate (Greiner Bio-One 781801) and PDHK reaction was performed at room temperature for 45 min (test compound well). DMSO (1.5 μL) was added to control wells instead of test compound. In addition, DMSO (1.5 μL) was added to blank wells instead of the test compound, and PDH solution was added instead of the PDH/hPDHK2 complex solution. To measure an inhibitory action of the test compound on the PDHK activity inherent in the PDH solution, a test compound was added and the PDH solution instead of the PDH/hPDHK2 complex solution was added to a blank+test compound well. […]

The IC50 is the concentration that inhibits the measured activity by half.

Molecules are shown by their SMILES.

Compound `C[C@H]1Cn2nc(OCC3CCN(S(C)(=O)=O)CC3)cc2-c2cnc([C@@](C)(O)C(F)(F)F)n21` [Example 68] had an IC50 of 14 nM. As to `C[C@H]1Cn2nc(OCC3CCN(C(=O)c4ccc(F)cc4)CC3)cc2-c2cnc([C@@](C)(O)C(F)(F)F)n21` [Example 69], the IC50 amounted to 15 nM. Compound `C[C@H]1Cn2nc(Oc3cc(C(F)(F)F)ncn3)cc2-c2cnc([C@@](C)(O)C(F)(F)F)n21` [Example 70] came in with an IC50 of 19 nM.

As to `CC(=O)N1CCC(Oc2cc3n(n2)C[C@H](C)n2c-3cnc2[C@@](C)(O)C(F)(F)F)CC1` [Example 71], the IC50 is 26 nM.

In turn, `C[C@H]1Cn2nc(Oc3cc(C4CC4)ncn3)cc2-c2cnc([C@@](C)(O)C(F)(F)F)n21` [Example 72] showed a half-maximal inhibitory concentration (IC50) of 12 nM.

`C[C@H]1Cn2c(nnc2C(F)(F)c2ccccc2Cl)-c2cnc([C@@](C)(O)C(F)(F)F)n21` [Example 73] had a 50% inhibitory concentration (IC50) of 7.4 nM. `C[C@H]1Cn2nc(OCC(F)(F)F)cc2-c2cnc([C@@](C)(O)C(F)(F)F)n21` [Example 74] registered a half-maximal inhibitory concentration (IC50) of 12 nM. Consider `CC(=O)N1CCC(c2cc3n(n2)C[C@H](C)n2c-3cnc2[C@@](C)(O)C(F)(F)F)CC1` [Example 75], for which half-maximal inhibition (IC50) was put at 19 nM. The compound `C[C@H]1Cn2nc(OCCN3CCCS3(=O)=O)cc2-c2cnc([C@@](C)(O)C(F)(F)F)n21` [Example 76] displayed a concentration for half-maximal inhibition (IC50) of 13 nM. For `C[C@H]1Cn2nc(OC3CCOCC3)cc2-c2cnc([C@@](C)(O)C(F)(F)F)n21` [Example 77] the value was 17 nM; for `C[C@H]1Cn2nc(OCC3COC3)cc2-c2cnc([C@@](C)(O)C(F)(F)F)n21` [Example 78], 17 nM; for `C[C@H]1Cn2nc(OCC(C)(C)C#N)cc2-c2cnc([C@@](C)(O)C(F)(F)F)n21` [Example 79], 15 nM. Regarding `C[C@H]1Cn2nc(OC(C)(C)C(C)(C)O)cc2-c2cnc([C@@](C)(O)C(F)(F)F)n21` [Example 80], inhibition was half-maximal at 13 nM (IC50). Consider `C[C@H]1Cn2c(nnc2C2(c3ccc(F)cc3)CC2)-c2cnc([C@@](C)(O)C(F)(F)F)n21` [Example 81], for which the half-maximal inhibitory concentration (IC50) turned out to be 7.3 nM.

Take `C[C@H]1Cn2nc(OCC3CCS(=O)(=O)CC3)cc2-c2cnc([C@@](C)(O)C(F)(F)F)n21` [Example 82]: the 50% inhibitory concentration (IC50) was found to be 23 nM.

Compound `C[C@H]1Cn2nc(OCC3CC4CCC(C3)S4(=O)=O)cc2-c2cnc([C@@](C)(O)C(F)(F)F)n21` (stereo partly drawn) [Example 83] returned a concentration for half-maximal inhibition (IC50) of 16 nM.

`C[C@H]1Cn2nc(OCC(C)(C)S(C)(=O)=O)cc2-c2cnc([C@@](C)(O)C(F)(F)F)n21` [Example 84] showed a half-maximal inhibitory concentration (IC50) of 42 nM. In the case of `C[C@H]1Cn2nc(OCC(O)(C(F)(F)F)C(F)(F)F)cc2-c2cnc([C@@](C)(O)C(F)(F)F)n21` [Example 85] it was 23 nM. For `C[C@H]1Cn2nc(Oc3ccnc(C(F)(F)F)c3)cc2-c2cnc([C@@](C)(O)C(F)(F)F)n21` [Example 86], the half-inhibitory concentration (IC50) is 16 nM. `C[C@H]1Cn2c(nnc2C(F)(F)c2ccc(C(F)(F)F)cn2)-c2cnc([C@@](C)(O)C(F)(F)F)n21` [Example 87] showed a concentration for half-maximal inhibition (IC50) of 8.7 nM. For `C[C@H]1Cn2nc(OCCC3(C#N)CC3)cc2-c2cnc([C@@](C)(O)C(F)(F)F)n21` [Example 88], the half-inhibitory concentration (IC50) came to 17 nM. `C[C@H]1Cn2c(nnc2C2(c3ccc(Cl)cc3)COC2)-c2cnc([C@@](C)(O)C(F)(F)F)n21` [Example 89] came in with a half-inhibitory concentration (IC50) of 8.8 nM. On to `C[C@H]1Cn2c(nnc2C(C)(F)F)-c2cnc([C@@](C)(O)C(F)(F)F)n21` [Example 90], for which it took 15 nM to reach half-maximal inhibition (IC50). As to `C[C@H]1Cn2c(nnc2C(C)(C)F)-c2cnc([C@@](C)(O)C(F)(F)F)n21` [Example 91], the 50% inhibitory concentration (IC50) was found to be 11 nM.

`C[C@H]1Cn2c(nnc2C(O)(C(F)(F)F)C(F)(F)F)-c2cnc([C@@](C)(O)C(F)(F)F)n21` [Example 92] came in with an IC50 of 16 nM. Consider `COC(c1nnc2n1C[C@H](C)n1c-2cnc1[C@@](C)(O)C(F)(F)F)(C(F)(F)F)C(F)(F)F` [Example 93], for which the 50% inhibitory concentration (IC50) turned out to be 21 nM.

`C[C@H]1Cc2cc(C#N)ccc2-c2cnc([C@@](C)(O)C(F)(F)F)n21` [Example 94] registered an IC50 of 8.6 nM.

In the case of `C[C@H]1Cn2nc(Oc3ccc(C#N)nc3)cc2-c2cnc([C@@](C)(O)C(F)(F)F)n21` [Example 95], half-maximal inhibition (IC50) required 18 nM. `C[C@H]1Cn2nc(OCCOC(F)F)cc2-c2cnc([C@@](C)(O)C(F)(F)F)n21` [Example 96]: the IC50 amounted to 13 nM. For the compound `C[C@H]1Cn2c(nnc2C2CC2c2ccccc2)-c2cnc([C@@](C)(O)C(F)(F)F)n21` (stereo partly drawn) [Example 97], the concentration for half-maximal inhibition (IC50) is 6.2 nM. `C[C@H]1Cn2c(-c3ccc(F)c(OC(C)(C)C)c3)nnc2-c2cnc([C@@](C)(O)C(F)(F)F)n21` [Example 98] returned an IC50 of 12 nM. On to `C[C@H]1Cn2c(nnc2C2(F)CC2)-c2cnc([C@@](C)(O)C(F)(F)F)n21` [Example 99], for which the IC50 is 8.5 nM.

Consider `C[C@H]1Cn2c(nnc2C(C)(C(F)(F)F)C(F)(F)F)-c2cnc([C@@](C)(O)C(F)(F)F)n21` [Example 100], for which the IC50 is 9.5 nM. `C[C@H]1Cn2nc(O[C@@H]3CCOC3)cc2-c2cnc([C@@](C)(O)C(F)(F)F)n21` [Example 101] gave an IC50 of 14 nM.

For `C[C@H]1Cn2nc(O[C@H]3CCOC3)cc2-c2cnc([C@@](C)(O)C(F)(F)F)n21` [Example 102], it took 16 nM to reach half-maximal inhibition (IC50). On to `C[C@H]1Cn2c(cc(=O)n2C(F)F)-c2cnc([C@@](C)(O)C(F)(F)F)n21` [Example 103], for which the IC50 was 26 nM.
